From patent publication US20090061005A1, “Paliperidone Polymorphs” (ACTAVIS GROUP PTC EHF, priority 2007, published 2009) come the findings set out here.

The nature of data set [1]: Water (moisture) content of Form A2 by TGA. Format: physicochemical. Here is the method:
Thermogravimetric analysis (TGA) was performed with a NETZSCH STA 409C/CD instrument. The term “water content” refers to the content of water based upon the Loss on Drying method as described in Pharmacopeial Forum, Vol. 24, No. 1, page 5438 (January-February 1998). The calculation of water content is based upon the percent of weight that is lost by drying. For Form A2 the term “water content” refers to the content of water based upon a TGA measurement.

A short description of data set [2]: Extended drying of Form A2 under vacuum (retention of hydrate water). Format: physicochemical. The conditions noted are these: drying for 12 hours at about 80° C. under vacuum.

Values joined by “and” are separate entries in the source; they are usually repeats but may differ in a detail not shown here. Equal entries are not always repeated.

As for `Cc1nc2n(c(=O)c1CCN1CCC(c3noc4cc(F)ccc34)CC1)CCCC2O` (racemic) [Form A2, (±)-3-[2-[4-(6-fluoro-1,2-benzisoxazol-3-yl)-1-piperidinyl]ethyl]-6,7,8,9-tetrahydro-9-hydroxy-2-methyl-4H-pyrido[1,2-a]pyrimidin-4-one], the water content in data set [1] (Form A2 obtained by the process, stable and consistently reproducible) was 2.5-4 % w/w. The Moisture content in data set [1] (isolated solid after drying under high vacuum at 60-70° C. for about 12 hours) is 4 % w/w and 2.7 % w/w. Besides, the “removal of moisture on extended drying” value in data set [2] is reported as “moisture could not be removed”.
